{"source": "patent US20050208163A1", "about": "“Compositions containing avocado leaf extract for lowering cholesterol levels” (priority 2002, published 2005)", "tested_on": "Hep G2 hepatoma cells", "assay": "Drymifolia leaf extract bioassay: cholesterol secretion by hepatoma cells (AMPLEX RED cholesterol kit)", "assay_type": "cell-based", "details": "for activity at 25 µg/mL: HepG2, Conc. 25 μg/ml", "method": "To measure cholesterol secretion by hepatoma cells following treatment by drymifolia leaf extract prepared in accordance with the present invention, a bioassay was performed. Samples for the bioassay were prepared by weighing out 100 mg of the spray dried powders of drymifolia leaf extracts. A 50 mg/ml total extract of the sample was then prepared by sequential addition of DMSO:ethanol:water in a ratio of 5:3:2. For example, for 100 mg of powder, 1 ml DMSO, 0.6 ml ethanol, and 0.4 ml water would be used. To prepare dilutions of sample for testing, the samples were diluted from the stock concentration of 50 mg/ml to test concentrations (i.e. 400, 200, 100 μg/ml) in tissue culture media. For the 400 μg/ml concentration, 8 μl of stock solution added to 992 μl tissue culture media would yield 400 μg/ml. From there, serial two fold dilutions would result in the remaining test concentration. Hep G2 hepatoma cells (ATCC, Manassas, Va.) were plated at 2×10^5/well in standard 24 well tissue culture plates. Following plating, the cells were incubated overnight. The next day, the media in the wells was aspirated and replaced with fresh media containing the diluted sample. Stock solutions of the samples were prepared as total extracts at 50 mg/ml. The samples were then diluted in tissue culture media just prior to adding to the cells. The cells were again incubated overnight with the samples. Then, the supernatant fluids were tested for the presence of cholesterol using the AMPLEX RED cholesterol kit (Molecular Probes, Eugene, Oreg.). The kit measures total cholesterol in the supernatants following enzymatic conversion of any cholesterol esters to free cholesterol using cholesterol esterase. The effect of the samples is calculated by dividing the mean relative fluorescence derived from the test samples by the mean relative fluorescence of untreated controls.\nLIPITOR® and pure rutin samples were prepared in the same manner as the drymifolia leaf extract in the bioassay. The drymifolia leaf extract samples performed as well as or better than LIPITOR®. […] Pure rutin in the amount equivalent to the amount found in the lots 3193, 3194, 3811, and 3831 was tested. More specifically, the amount of rutin found in the lots was 3.44 mg/g, 4.36 mg/g, 4.42 mg/g and 4.13 mg/g, respectively. At the highest concentration of the drymifolia leaf extract samples tested (which was 400 ug/ml), there could be up to 25 ug/ml of rutin. Thus, the amount of pure rutin used in the bioassay was 3.125 to 25 ug/ml. […]", "key": {"[1]": {"details": "Homo sapiens, read-out: % ctrl (cholesterol release)"}}}
{"smiles": "CC(C)c1c(C(=O)Nc2ccccc2)c(-c2ccccc2)c(-c2ccc(F)cc2)n1CC[C@@H](O)C[C@@H](O)CC(=O)O", "note": "[LIPITOR ®, atorvastatin]", "values": [{"measurement": "Mean (relative fluorescence, cholesterol release)", "setting": "Conc. 25 μg/ml", "result": 18308.5}, {"measurement": "Mean (relative fluorescence, cholesterol release)", "setting": "Conc. 50 μg/ml", "result": 18591}, {"measurement": "Mean (relative fluorescence, cholesterol release)", "setting": "Conc. 100 μg/ml", "result": 16871.5}, {"measurement": "Mean (relative fluorescence, cholesterol release)", "setting": "Conc. 200 μg/ml", "result": 16378}, {"measurement": "activity at 25 µg/mL", "setting": "[1]", "result": 99.2, "unit": "%"}, {"measurement": "activity at 50 µg/mL", "setting": "Homo sapiens, HepG2, Conc. 50 μg/ml, read-out: % ctrl (cholesterol release)", "result": 101, "unit": "%"}, {"measurement": "activity at 100 µg/mL", "setting": "Homo sapiens, HepG2, Conc. 100 μg/ml, read-out: % ctrl (cholesterol release)", "result": 91.5, "unit": "%"}, {"measurement": "activity at 200 µg/mL", "setting": "Homo sapiens, HepG2, Conc. 200 μg/ml, read-out: % ctrl (cholesterol release)", "result": 88.8, "unit": "%"}]}
{"smiles": "C[C@@H]1O[C@@H](OC[C@H]2O[C@@H](Oc3c(-c4ccc(O)c(O)c4)oc4cc(O)cc(O)c4c3=O)[C@H](O)[C@@H](O)[C@@H]2O)[C@H](O)[C@H](O)[C@H]1O", "note": "[Pure Rutin, rutin]", "values": [{"measurement": "Mean (relative fluorescence, cholesterol release)", "setting": "Conc. 3.125 μg/ml", "result": 18609.5}, {"measurement": "Mean (relative fluorescence, cholesterol release)", "setting": "Conc. 6.25 μg/ml", "result": 19069}, {"measurement": "Mean (relative fluorescence, cholesterol release)", "setting": "Conc. 12.5 μg/ml", "result": 17835}, {"measurement": "Mean (relative fluorescence, cholesterol release)", "setting": "Conc. 25 μg/ml", "result": 16817.5}, {"measurement": "activity at 3.125 µg/mL", "setting": "Homo sapiens, HepG2, Conc. 3.125 μg/ml, read-out: % ctrl (cholesterol release)", "result": 101, "unit": "%"}, {"measurement": "activity at 6.25 µg/mL", "setting": "Homo sapiens, HepG2, Conc. 6.25 μg/ml, read-out: % ctrl (cholesterol release)", "result": 103, "unit": "%"}, {"measurement": "activity at 12.5 µg/mL", "setting": "Homo sapiens, HepG2, Conc. 12.5 μg/ml, read-out: % ctrl (cholesterol release)", "result": 96.7, "unit": "%"}, {"measurement": "activity at 25 µg/mL", "setting": "[1]", "result": 91.2, "unit": "%"}]}
